Experimental data: patent US20070099822A1, “Regulation of tissue mineralization and phosphate metabolism by asarm peptides” (priority 2003, published 2007)

Tested on: male ICR Swiss mice
Experiment: Example VI: subcutaneous PO4-ASARM-peptide or etidronate, calcein fluorescence and Sanderson osteoid staining
Assay type: in vivo
Conditions: four layers visible in vehicle group
Description: Subcutaneous administration of PO4-ASARM-peptide, etidronate (EHDP), and calcein. Three separate groups of male ICR Swiss mice (4-5 weeks) were subcutaneously injected once a day (9:00AM), for 12 days except for days 6 and 7 with 50 μL solutions of either (1) Eitidronate (EHDP) (10 mg/kg/day); (2) PO4-ASARM-peptide (2 mg/kg/day); or (3) vehicle consisting of 5 mM HEPES pH 7.4/150 mM NaCL/0.1% BSA. The synthetic PO4-ASARM-peptide was dissolved in vehicle (1.0 mg/mL). Etidronate was first dissolved in 150 mM NaCl and then buffered to pH 7.5 with 1M NaOH to give a 5 mg/mL solution. The 10 mg/kg/day doses of etidronate have previously been reported to inhibit mineralization in rats and were used as positive controls (Trechsel, et al., Am J Physiol 232(3):E298-305, 1977; Bonjour, et al., Am J Physiol 229(2):402-8, 1975). All three groups were subcutaneously injected with calcein (20 mg/kg/day) on days 3, 5, […]. The degree of calcein fluorescence and/or fluorescence-quenching is an indicator of mineralization status (see next section). The calcein injections when given were administered 1 h after the daily injections of PO4-ASARM-peptide, EHDP or vehicle. Animals were then terminated humanely and calvariae plus femurs/tibia were fixed in 70% ethanol (non-decalcified). After fluorescence imaging (see FIG. 35) calvariae were processed in plastic and stained with Sanderson's stain (see below). Five animals per group were used for statistical analysis of fluorescence quenching and histological Sanderson staining.
Calcein fluorescence in mice calvariae, hind-limbs & fluor-imager analysis of mineralization. A Bio-Rad (Hercules, Calif.) FluorImager^max fluorescent imager was used to simultaneously image all the samples from each of the 3 groups (15 animals; five animals per group). This consisted of 10 tibia/femurs and 5 calvariae per group. Samples were placed on top of the FluorImager plate contained within a light-tight box. Ultra-violet light was used to generate calcein-mediated epi-fluorescence and the fluorescent-image was captured on a −40° C., peltier-cooled, 1,340×1040 pixel CCD resolution, CCD digital-camera. Quantitation of fluorescence was carried out using Quantity-1 (Bio-Rad, Hercules, Calif.) fluorescence-software. Pixel saturation was prevented by internal software calibration and exposure adjustment. All fluorescence readings were thus accurately quantitative and non-saturating. Photo-micrographic UV fluorescent analysis of calvarial cross sections embedded in plastic and mounted as slides (<100 micrometer sections) was also undertaken and a description of the fixation and processing is given in the next section.
Sanderson-staining and fluorescence detection of calvarial osteoid & mineralized bone. Staining of non-decalcified calvarial sections was performed using the method described by Sanderson and Bachus (Staining technique to differentiate mineralized and demineralized bone in ground sections, J Histotechnol 20(2): 119-122, 1997). This technique provides differential staining between unmineralized osteoid and mineralized bone. Prior to staining, calvariae were dissected and attached tissue removed. Calvariae were then placed in 70% ethanol for further fixation as described by Sanderson and Bachus (supra). After fixing and processing undecalcified calvariae were embedded in plastic (LR-white acrylic resin (London Resin Co., Reading, England)) as previously described (Garrett, et al., Selective inhibitors of the osteoblast proteasome stimulate bone formation in vivo and in vitro, J Clin Invest 111(11):1771-1782, 2003). Plastic embedded sections were ground to <100 micrometers using a specialized grinding-pestle as described by Donath and Breuner (A method for the study of undecalcified bones and teeth with attached soft tissues. The Sage-Schliff (sawing and grinding) technique, J Oral Pathol 11(4):318-26, 1982). […]

H-CFSSRRRDDSSESSDSGSSSESDGD-OH [ASARM-peptide]
lamellar calcein fluorescent layers in calvarial cross-sections: complete absence
